For series [1], the system named is Acinetobacter calcoaceticus IFO 13006. Nature of the series: Antimicrobial spectrum, minimal inhibitory concentration. The note with it: IFO13006, Bacto Antibiotic Medium 3 / yeast extract / agar medium, about 10^6 colony forming units/ml. Format: cell-based. The method, then: (§1) (Note 1): As the culture medium, there was used a medium consisting of
(§2) 17.5 g of Bacto Antibiotic Medium 3 (produced by Difco Laboratories of
(§3) U.S.A.), 5.0 g of Bacto Yeast extract (produced by Difco Laboratories of
(§4) U.S.A.), […] of Bacto Agar (produced by Difco Laboratories of U.S.A.)
(§5) and 1000 ml of distilled water (without adjustment of pH), while as the
(§6) bacterial inoculation solution, there was used about 10^6 colony
(§7) 17.5 g of Bacto Antibiotic Medium 3 (produced by Difco Laboratories,
(§8) U.S.A.), […] of Bacto Yeast extract (produced by Difco Laboratories,
(§9) U.S.A.), 20 g of Bacto Agar (produced by Difco Laboratories, U.S.A.) and
(§10) 1000 ml of distilled water (without adjustment of pH), while as the
(§11) bacterial inoculation solution, there was employed about 10^6 colony

Series [2] deals with Alcaligenes faecalis IFO 13111. Described as above. In kind it is cell-based. The note with it: IFO13111, Bacto Antibiotic Medium 3 / yeast extract / agar medium, about 10^6 colony forming units/ml. The method, then: as §1, §2, §3, §4, §5, §6, §7, §8, §9, §10, §11
The subject of another series is Bacillus cereus FDA 5. The series is described as above. In kind it is cell-based. The note with it: FDA5, Bacto Antibiotic Medium 3 / yeast extract / agar medium, about 10^6 colony forming units/ml. The method, then: as §1, §2, §3, §4, §5, §6, §7, §8, §9, §10, §11
The test system of series [3] is Bacillus subtilis NIHJ PCI 219. The series is described as above. Format: cell-based. The note with it: Bacto Antibiotic Medium 3 / yeast extract / agar medium, about 10^6 colony forming units/ml. The method, then:
as §1, §2, §3, §4, §5, §6, §7, §8, §9, §10, §11

Series [4] has as its system Citrobacter freundii IFO 12681. Described as above. Format: cell-based. To be noted: IFO12681, Bacto Antibiotic Medium 3 / yeast extract / agar medium, about 10^6 colony forming units/ml. The method, then: as §1, §2, §3, §4, §5, §6, §7, §8, §9, §10, §11
Series [5] deals with Escherichia coli NIHJ JC 2. Described as above. In kind it is cell-based. The note with it: NIHJJC2, Bacto Antibiotic Medium 3 / yeast extract / agar medium, about 10^6 colony forming units/ml. The method, then:
as §1, §2, §3, §4, §5, §6, §7, §8, §9, §10, §11

The test system of series [6] is Klebsiella pneumoniae IFO 3317. The series is described as above. Format: cell-based. To be noted: IFO3317, Bacto Antibiotic Medium 3 / yeast extract / agar medium, about 10^6 colony forming units/ml. The method, then: as §1, §2, §3, §4, §5, §6, §7, §8, §9, §10, §11
Series [7] relates to Micrococcus luteus IFO 12708. The series is described as above. To be noted: IFO12708, Bacto Antibiotic Medium 3 / yeast extract / agar medium, about 10^6 colony forming units/ml. Format: cell-based. The method, then:
as §1, §2, §3, §4, §5, §6, §7, §8, §9, §10, §11

The test system of series [8] is Proteus mirabilis ATCC 21100. Described as above. Format: cell-based. The note with it: ATCC21100, Bacto Antibiotic Medium 3 / yeast extract / agar medium, about 10^6 colony forming units/ml. The method, then: as §1, §2, §3, §4, §5, §6, §7, §8, §9, §10, §11
For series [9], the system named is Proteus morganii IFO 3168. Described as above. To be noted: Morganella morganii, IFO3168, Bacto Antibiotic Medium 3 / yeast extract / agar medium, about 10^6 colony forming units/ml. In kind it is cell-based. The method, then:
as §1, §2, §3, §4, §5, §6, §7, §8, §9, §10, §11

The subject of series [10] is Proteus vulgaris IFO 3988. Described as above. Format: cell-based. The note with it: IFO3988, Bacto Antibiotic Medium 3 / yeast extract / agar medium, about 10^6 colony forming units/ml. The method, then:
as §1, §2, §3, §4, §5, §6, §7, §8, §9, §10, §11

Series [11] relates to Pseudomonas aeruginosa IFO 3080. Described as above. Format: cell-based. The note with it: IFO3080, Bacto Antibiotic Medium 3 / yeast extract / agar medium, about 10^6 colony forming units/ml. The method, then: as §1, §2, §3, §4, §5, §6, §7, §8, §9, §10, §11
Series [12] deals with Salmonella typhimurium IFO 12529. Described as above. Format: cell-based. The note with it: Salmonella enterica, Bacto Antibiotic Medium 3 / yeast extract / agar medium, about 10^6 colony forming units/ml. The method, then:
as §1, §2, §3, §4, §5, §6, §7, §8, §9, §10, §11

In series [13] the test system is Serratia marcescens IFO 12648. The description is as above. To be noted: IFO12648, Bacto Antibiotic Medium 3 / yeast extract / agar medium, about 10^6 colony forming units/ml. In kind it is cell-based. The method, then:
as §1, §2, §3, §4, §5, §6, §7, §8, §9, §10, §11

For series [14], the system named is Staphylococcus aureus FDA 209P. Described as above. In kind it is cell-based. To be noted: FDA209P, Bacto Antibiotic Medium 3 / yeast extract / agar medium, about 10^6 colony forming units/ml. The method, then: as §1, §2, §3, §4, §5, §6, §7, §8, §9, §10, §11
For the next series, the system named is Escherichia coli PG 8. Nature of the series: Inhibition zone against test microorganism without addition of β-lactamase. The note with it: test microorganism Escherichia coli PG 8; no β-lactamase added. In kind it is cell-based.
The target of the next series is T1, Penicillinase (Bacillus cereus, UniProt P10424).
T1 construct: purchased Calbio Chemical Co. of U.S.A
The series is described as follows: Stability against β-lactamase (penicillinase), test microorganism Escherichia coli PG 8. To be noted: Penicillinase derived from Bacillus cereus, -- = No inhibition zone indicated. Format: biochemical. The text has this:
*^1 Derived from Bacillus cereus, produced by Calbio Chemical Co. of […]

A further series deals with Cephalosporinase (Enterobacter cloacae, UniProt P05364). The series is described as follows: Stability against β-lactamase (cephalosporinase), test microorganism Escherichia coli PG 8. In kind it is biochemical. To be noted: Cephalosporinase derived from Enterobacter cloacae, -- = No inhibition zone indicated.
A further series can be described thus: Solubility. Format: physicochemical.
For series [15], the system named is Staphylococcus aureus 308A-1. The series is described as follows: Therapeutic effect in the experimental mouse infection. In kind it is in vivo. The note with it: 308A1, sc, Staphylococcus aureus 308A-1, route of administration Subcutaneous.
A short description of another series: Acute toxicity. In kind it is in vivo. The note with it: administered subcutaneously at a dose of 400 mg/kf.
Series [16] is described as follows: Stability in an aqueous solution. In kind it is physicochemical.
Series [17] in a line: Interconversion of HPLC peaks A and B on standing in buffers. Format: physicochemical. The note with it: buffers of pH 3, 5 and 7 at room temperature. The text has this: TAN-588 as obtained in this manner has two peaks on the reverse-phase HPLC. These peaks are temporarily referred to as A and B, respectively, whereby the phenomena to be described in the following are observed. […] Therefore, it is thought impossible to separate TAN-588 itself into A and B by means of the presently known separation techniques. However, the conversion of TAN-588 into the p-nitrobenzyl ester or benzhydryl derivative makes it possible for such a compound to be separated into the A type and B type of the compound, respectively.

Structures are written as SMILES. Converted amounts (≈) assume the structure as drawn. Structures can show the parent of a compound that is named as a salt. Some results are limits rather than exact numbers.

As a reminder, the MIC is the lowest concentration that inhibits growth of the organism. As usually defined, the ED50 is the dose that gives a 50% effect, or the effect in half of the subjects. A low value points to an effect at a small dose.

T1 sequence (P10424 44-306): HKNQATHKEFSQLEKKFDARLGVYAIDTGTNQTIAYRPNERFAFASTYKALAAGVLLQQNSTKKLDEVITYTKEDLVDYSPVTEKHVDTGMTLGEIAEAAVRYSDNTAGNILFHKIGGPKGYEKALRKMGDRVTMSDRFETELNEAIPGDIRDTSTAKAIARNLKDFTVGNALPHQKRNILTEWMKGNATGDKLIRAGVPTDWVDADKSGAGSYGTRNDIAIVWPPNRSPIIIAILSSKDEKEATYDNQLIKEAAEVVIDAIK
Sequence of Cephalosporinase (P05364 21-381): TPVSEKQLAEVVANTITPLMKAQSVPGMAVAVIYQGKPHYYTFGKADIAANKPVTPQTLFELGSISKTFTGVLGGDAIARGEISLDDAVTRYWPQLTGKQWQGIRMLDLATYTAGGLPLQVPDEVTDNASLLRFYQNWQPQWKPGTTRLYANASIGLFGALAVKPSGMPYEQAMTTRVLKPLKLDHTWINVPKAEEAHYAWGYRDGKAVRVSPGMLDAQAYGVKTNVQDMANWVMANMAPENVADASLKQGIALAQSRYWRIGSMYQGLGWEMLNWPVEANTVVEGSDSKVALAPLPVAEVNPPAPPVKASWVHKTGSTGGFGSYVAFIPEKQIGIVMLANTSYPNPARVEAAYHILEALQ
Source text for Cephalosporinase: *^2 Derived from Enterobacter cloacae.
*^3 No inhibition zone indicated.

Consider `N[C@H]1CON(C2(C(=O)O)CCC(=O)O2)C1=O` (stereo partly shown) [N-deacetyl TAN-588], for which the minimum inhibitory concentration (MIC) was 50 µg/mL (≈ 217 µM) in series [1]; 100 µg/mL (≈ 434 µM) in series [2]; 50 µg/mL (≈ 217 µM) with Bacillus cereus FDA 5; 12.5 µg/mL (≈ 54.3 µM) in [3]; 50 µg/mL (≈ 217 µM) in series [4]; 25 µg/mL (≈ 109 µM) in [5]. Also, the MIC in series [6] is 100 µg/mL (≈ 434 µM); in series [7] it was 6.25 µg/mL (≈ 27.2 µM); in series [8] it was 100 µg/mL (≈ 434 µM); in series [9], greater than 100 µg/mL; in series [10], 100 µg/mL (≈ 434 µM); in [11] it was 50 µg/mL (≈ 217 µM). The figures for the MIC in series [12], in series [13] and in [14] were 50 µg/mL (≈ 217 µM), 25 µg/mL (≈ 109 µM) and 50 µg/mL (≈ 217 µM), respectively. Moreover, the “inhibition zone, β-Lactamase: Without addition” value in the series on Escherichia coli PG 8 worked out at 22.5. For the same compound, on Penicillinase, the “inhibition zone, β-Lactamase: Penicillinase” value is on record as 24.5. For the same compound, at Cephalosporinase, the “inhibition zone, β-Lactamase: Cephalosporinase” value is reported as 21.5. In addition, in “Solubility”, the “Solubility in diethyl ether” value is recorded as “Sparingly soluble”. Besides, in the series “Solubility”, the Solubility in dimethylsulfoxide entry is reported as “Sparingly soluble”. The “Solubility in ethyl acetate” value in “Solubility” is reported as “Sparingly soluble”. The Solubility in water entry in the series “Solubility” is “Soluble”.
Turning to `CC(=O)N[C@H]1CON(C2(C(=O)O)CCC(=O)O2)C1=O` (stereo partly shown) [TAN-588 sodium salt], the minimal inhibitory concentration (MIC) is 25 µg/mL in series [1]; 50 µg/mL in series [2]; 12.5 µg/mL in the series with Bacillus cereus FDA 5; 3.13 µg/mL in series [3]; 100 µg/mL in series [4]; 50 µg/mL in series [5]. For the same compound, the MIC in [6] is 100 µg/mL; in [7], 0.39 µg/mL; in [8], 25 µg/mL; in [9], 100 µg/mL; in [10] it was 25 µg/mL; in series [11] it was greater than 100 µg/mL. Moreover, the minimum inhibitory concentration (MIC) in series [12] was 50 µg/mL; in series [13], 50 µg/mL; in series [14] it was 3.13 µg/mL. In addition, the ED50 in [15] stood at 25 mg/kg. Moreover, the acute toxicity result in “Acute toxicity” is given as “no acute toxicity”. In “Solubility”, the Solubility in chloroform entry is recorded as “Sparingly soluble”. In the series “Solubility”, the “Solubility in diethyl ether” value was “Sparingly soluble”. For the same compound, the Solubility in dimethylsulfoxide entry in the series “Solubility” is recorded as “Soluble”. The “Solubility in ethyl acetate” value in the series “Solubility” is listed as “Sparingly soluble”. Besides, the Solubility in water entry in “Solubility” was “Soluble”. The “Stability in an aqueous solution” value in series [16] (pH 3 and 7) is given as “slightly stable”; in [16] (pH 5), “Stable”; in series [16] (pH 9), “unstable”.
Consider `CO[C@@]1(NC(=O)CCC[C@@H](N)C(=O)O)C(=O)N2C(C(=O)O)=C(COC(N)=O)CS[C@@H]21` [CMC, reference compound], for which, in the series on Escherichia coli PG 8, the “inhibition zone, β-Lactamase: Without addition” value is listed as 34. Moreover, on Penicillinase, the “inhibition zone, β-Lactamase: Penicillinase” value turned out to be 34.
As to `N[C@H]1CON([C@]2(C(=O)O)CCC(=O)O2)C1=O` [N-deacetyl TAN-588 (A type compound)], in “Solubility”, the Solubility in chloroform result is “Sparingly soluble”, the “Solubility in diethyl ether” value was “Sparingly soluble”, the Solubility in dimethylsulfoxide entry is recorded as “Sparingly soluble” and the “Solubility in ethyl acetate” value is “Sparingly soluble”. In addition, the Solubility in water result in the series “Solubility” is reported as “Soluble”.
Take `N[C@H]1CON([C@@]2(C(=O)O)CCC(=O)O2)C1=O` [N-deacetyl TAN-588 (B type compound)]: in “Solubility”, the Solubility in chloroform result is given as “Sparingly soluble”, the “Solubility in diethyl ether” value was “Sparingly soluble”, the Solubility in dimethylsulfoxide result was “Sparingly soluble” and the “Solubility in ethyl acetate” value was “Sparingly soluble”. In “Solubility”, the Solubility in water result was “Soluble”.
For `CC(=O)N[C@H]1CON(C2(C(=O)O)CCC(=O)O2)C1=O` (stereo partly shown) [TAN-588], the “interconversion of isolated peaks A and B” value in series [17] is “A turns into B, with B turning into A, about one hour later at any pH values”.
With `CC1(C)S[C@@H]2[C@H](NC(=O)Cc3ccccc3)C(=O)N2[C@H]1C(=O)O` [PCG], in the series with Escherichia coli PG 8, the “inhibition zone, β-Lactamase: Without addition” value came out at 22.

(Values after US4656288A, “Antibiotics, their production and use” (Takeda Chemical Industries, Ltd., priority 1984, dated 1987).)
